# Assay results reported in patent publication US11155525B2 (Sanford Burnham Prebys Medical Discovery Institute, priority 2015, dated 2021).
# Biological target: T1, human apelin receptor (Homo sapiens, UniProt P35414)
# T1 construct: host or cells: CHO cells
# T1 sequence (P35414 1-380): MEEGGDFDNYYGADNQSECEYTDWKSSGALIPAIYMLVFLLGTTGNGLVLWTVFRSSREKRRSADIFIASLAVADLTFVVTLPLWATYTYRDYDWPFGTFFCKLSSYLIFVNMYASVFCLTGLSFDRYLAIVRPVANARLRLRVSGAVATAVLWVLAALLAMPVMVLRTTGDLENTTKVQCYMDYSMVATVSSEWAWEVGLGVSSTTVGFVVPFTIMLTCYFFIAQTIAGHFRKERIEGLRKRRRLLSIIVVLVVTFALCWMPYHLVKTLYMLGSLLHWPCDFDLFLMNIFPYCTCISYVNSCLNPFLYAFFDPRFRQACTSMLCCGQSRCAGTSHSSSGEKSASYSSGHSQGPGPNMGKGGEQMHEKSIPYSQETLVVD
# Test: Measurement of apelin receptor agonist activity (cell-based assay determining the amount of intracellular cAMP)
# Details: CHO cells stably expressing the human apelin receptor, Forskolin 10 μM, 30 minutes, 100% efficacy = [Pyr1]-apelin-13 0.300 μM, concentration giving 50% efficacy
# Protocol: Measurement of Apelin Receptor Agonist Activity
# The apelin receptor agonist activity of the compound represented by formula (I) or (II) of the present invention was measured by cell-based assay for determining the amount of intracellular cAMP.
# CHO cells (DiscoveRx Corp.) stably expressing the human apelin receptor were inoculated to wells of a microtiter plate and cultured overnight at 37° C. under conditions of 5% CO2.
# Each test compound and Forskolin were added to the wells at the same time. Specifically, the test compound dissolved in DMSO was diluted with a Forskolin-containing buffer [DMEM/F-12, HEPES, no phenol red (#11039, GIBCO)] to prepare a mixed solution containing the test compound at a final concentration of […] (common ratio: 3, serial dilution: 11), Forskolin at a final concentration of 10 μM, and DMSO at a final concentration of 0.3% v/v, which was then added to the wells (N═4).
# After 30 minutes, the cells were lysed, and HitHunter cAMP XS+ Assay #90-0075L (DiscoveRx Corp.) was added to the cell lysate. The mixture was left overnight, and the resulting chemiluminescence signals were then detected using Analyst GT (Molecular Devices LLC.) to determine the amount of cAMP.
# The amount of cAMP determined by the addition of a positive control [Pyr1]-apelin-13 (final concentration: 0.300 μM) and Forskolin (final concentration: 10 μM) at the same time was used as an index to define 100% efficacy. The amount of cAMP determined by the addition of Forskolin (final concentration: 10 μM) alone was used as an index to define 0% efficacy.
# A dose response curve was prepared from the final concentration of the test compound and the determined amount of cAMP using Sigmaplot 12.0.
row,Compound,EC50 [nM]
1,"COc1cccc(OC)c1-n1c(SCP(=O)(OC(C)C)OC(C)C)nnc1-c1ccc(C)o1 [Example 96, Dipropan-2-yl ({[4-(2,6-dimethoxyphenyl)-5-(5-methylfuran-2-yl)-4H-1,2,4-triazol-3-yl]sulfanyl}methyl)phosphonate]",605
2,"COc1cccc(OC)c1-n1c(-c2cccc(C(=O)O)c2)nnc1-c1ccc(C)o1 [Example 46, 3-[4-(2,6-Dimethoxyphenyl)-5-(5-methylfuran-2-yl)-4H-1,2,4-triazol-3-yl]benzoic acid]",96
3,"COc1cccc(OC)c1-n1c(/C=C/C(=O)N2C[C@H](O)C[C@H]2C(=O)O)nnc1-c1ccc(C)o1 [Example 92, (4R)-1-{(2E)-3-[4-(2,6-Dimethoxyphenyl)-5-(5-methylfuran-2-yl)-4H-1,2,4-triazol-3-yl]prop-2-enoyl}-4-hydroxy-L-proline]",166
4,"COC(=O)C(Sc1nnc(-c2ccc(C)o2)n1-c1c(OC)cccc1OC)c1cccc2ccccc12 (centres unmarked) [Example 37, Methyl {[4-(2,6-dimethoxyphenyl)-5-(5-methylfuran-2-yl)-4H-1,2,4-triazol-3-yl]sulfanyl}(naphthalen-1-yl)acetate]",825
5,"COc1cccc(OC)c1-n1c(SCc2cc(=O)n(C)c(=O)n2C)nnc1-c1ccc(C)o1 [Example 15, 6-({[4-(2,6-Dimethoxyphenyl)-5-(5-methylfuran-2-yl)-4H-1,2,4-triazol-3-yl]sulfanyl}methyl)-1,3-dimethylpyrimidine-2,4(1H,3H)-dione]",164
6,"COc1cccc(OC)c1-n1c(/C=C/C#N)nnc1-c1ccc(C)o1 [Example 53, (2E)-3-[4-(2,6-Dimethoxyphenyl)-5-(5-methylfuran-2-yl)-4H-1,2,4-triazol-3-yl]prop-2-enenitrile]",2650
7,"COc1cccc(OC)c1-n1c(CO)nnc1-c1ccc(C)o1 [Example 7, [4-(2,6-Dimethoxyphenyl)-5-(5-methylfuran-2-yl)-4H-1,2,4-triazol-3-yl]methanol]",815
8,"COc1cccc(OC)c1-n1c(SCCCCCC(=O)O)nnc1-c1ccc(C)o1 [Example 50, 6-{[4-(2,6-Dimethoxyphenyl)-5-(5-methylfuran-2-yl)-4H-1,2,4-triazol-3-yl]sulfanyl}hexanoic acid]",1320
9,"CCOC(=O)CSc1nnc(-c2ccc(C)o2)n1-c1c(OC)cccc1OC [Example 4, Ethyl {[4-(2,6-dimethoxyphenyl)-5-(5-methylfuran-2-yl)-4H-1,2,4-triazol-3-yl]sulfanyl}acetate]",122
10,"COc1cccc(OC)c1-n1c(/C=C/C(=O)O)nnc1-c1ccc(C)o1 [Example 65, Sodium (2E)-3-[4-(2,6-dimethoxyphenyl)-5-(5-methylfuran-2-yl)-4H-1,2,4-triazol-3-yl]prop-2-enoate]",75
11,"COc1cccc(OC)c1-n1c(CCC(C)=O)nnc1-c1ccc(C)o1 [Example 24, 4-[4-(2,6-Dimethoxyphenyl)-5-(5-methylfuran-2-yl)-4H-1,2,4-triazol-3-yl]butan-2-one]",751
12,"COc1cccc(OC)c1-n1c(SC(C(=O)O)c2ccccc2)nnc1-c1ccc(C)o1 (centres unmarked) [Example 35, {[4-(2,6-Dimethoxyphenyl)-5-(5-methylfuran-2-yl)-4H-1,2,4-triazol-3-yl]sulfanyl}(phenyl)acetic acid]",10
13,"COC(=O)/C=C\c1nnc(-c2ccc(C)o2)n1-c1c(OC)cccc1OC [Example 55, Methyl (2Z)-3-[4-(2,6-dimethoxyphenyl)-5-(5-methylfuran-2-yl)-4H-1,2,4-triazol-3-yl]prop-2-enoate]",1920
14,"COc1cccc(OC)c1-n1c(SCC(=O)O)nnc1-c1ccoc1 [Example 62, {[4-(2,6-Dimethoxyphenyl)-5-(furan-3-yl)-4H-1,2,4-triazol-3-yl]sulfanyl}acetic acid]",808

# The remaining compounds from weak to strong by EC50, led by results:
row,EC50 [nM],Compound
1,5460,"COc1cccc(OC)c1-n1c(SCc2ccc(C(=O)O)cc2)nnc1-c1ccc(C)o1 [Example 82, 4-({[4-(2,6-Dimethoxyphenyl)-5-(5-methylfuran-2-yl)-4H-1,2,4-triazol-3-yl]sulfanyl}methyl)benzoic acid]"
2,1210,"COc1cccc(OC)c1-n1c(Br)nnc1-c1ccc(C)o1 [Example 44, 3-Bromo-4-(2,6-dimethoxyphenyl)-5-(5-methylfuran-2-yl)-4H-1,2,4-triazole]"
3,1200,"COc1cccc(OC)c1-n1c(/C=C/C(=O)N(C)OC)nnc1-c1ccc(C)o1 [Example 54, (2E)-3-[4-(2,6-Dimethoxyphenyl)-5-(5-methylfuran-2-yl)-4H-1,2,4-triazol-3-yl]-N-methoxy-N-methylprop-2-enamide]"
4,1170,"COc1cccc(OC)c1-n1c(CNC(=O)C(=O)O)nnc1-c1ccc(C)o1 [Example 98, ({[4-(2,6-Dimethoxyphenyl)-5-(5-methylfuran-2-yl)-4H-1,2,4-triazol-3-yl]methyl}amino)(oxo)acetic acid]"
5,812,"CCCCc1nnc(SCC(=O)O)n1-c1c(OC)cccc1OC [Example 29, {[5-Butyl-4-(2,6-dimethoxyphenyl)-4H-1,2,4-triazol-3-yl]sulfanyl}acetic acid]"
6,729,"COc1cccc(OC)c1-n1c(/C=C/C(C)=O)nnc1-c1ccc(C)o1 [Example 20, (3E)-4-[4-(2,6-Dimethoxyphenyl)-5-(5-methylfuran-2-yl)-4H-1,2,4-triazol-3-yl]but-3-en-2-one]"
7,503,"COC(=O)[C@@H]1CCCN1C(=O)/C=C/c1nnc(-c2ccc(C)o2)n1-c1c(OC)cccc1OC [Example 90, Methyl 1-{(2E)-3-[4-(2,6-dimethoxyphenyl)-5-(5-methylfuran-2-yl)-4H-1,2,4-triazol-3-yl]prop-2-enoyl}-L-prolinate]"
8,412,"COc1cccc(OC)c1-n1c(SCC(=O)O)nnc1-c1ccco1 [Example 61, {[4-(2,6-Dimethoxyphenyl)-5-(furan-2-yl)-4H-1,2,4-triazol-3-yl]sulfanyl}acetic acid]"
9,349,"COc1cccc(OC)c1-n1c(-c2ccc(C)o2)nnc1-c1ccccc1C(=O)O [Example 59, 2-[4-(2,6-Dimethoxyphenyl)-5-(5-methylfuran-2-yl)-4H-1,2,4-triazol-3-yl]benzoic acid]"
10,332,"COc1cccc(OC)c1-n1c(SCC(=O)O)nnc1-c1cccs1 [Example 30, {[4-(2,6-Dimethoxyphenyl)-5-(thiophen-2-yl)-4H-1,2,4-triazol-3-yl]sulfanyl}acetic acid]"
11,314,"COc1cccc(OC)c1-n1c(SCc2cc(=O)n3nccc3[nH]2)nnc1-c1ccc(C)o1 [Example 16, 5-({[4-(2,6-Dimethoxyphenyl)-5-(5-methylfuran-2-yl)-4H-1,2,4-triazol-3-yl]sulfanyl}methyl)pyrazolo[1,5-a]pyrimidin-7(4H)-one]"
12,273,"CCOC(=O)C(=O)NCc1nnc(-c2ccc(C)o2)n1-c1c(OC)cccc1OC [Example 97, Ethyl ({[4-(2,6-dimethoxyphenyl)-5-(5-methylfuran-2-yl)-4H-1,2,4-triazol-3-yl]methyl}amino)(oxo)acetate]"
13,219,"COc1cccc(OC)c1-n1c(SCC(N)=O)nnc1-c1ccc(C)o1 [Example 83, 2-{[4-(2,6-Dimethoxyphenyl)-5-(5-methylfuran-2-yl)-4H-1,2,4-triazol-3-yl]sulfanyl}acetamide]"
14,52,"COc1cccc(OC)c1-n1c(/C=C/C(=O)O)nnc1-c1ccc(C)o1 [Example 64, Ammonium (2E)-3-[4-(2,6-dimethoxyphenyl)-5-(5-methylfuran-2-yl)-4H-1,2,4-triazol-3-yl]prop-2-enoate]"
15,22,"COc1cccc(OC)c1-n1c(-c2ccc(C(=O)O)cc2)nnc1-c1ccc(C)o1 [Example 48, 4-[4-(2,6-Dimethoxyphenyl)-5-(5-methylfuran-2-yl)-4H-1,2,4-triazol-3-yl]benzoic acid]"
16,6,"COc1cccc(OC)c1-n1c(SCC(=O)NS(=O)(=O)c2ccccc2)nnc1-c1ccc(C)o1 [Example 95, 2-{[4-(2,6-Dimethoxyphenyl)-5-(5-methylfuran-2-yl)-4H-1,2,4-triazol-3-yl]sulfanyl}-N-(phenylsulfonyl)acetamide]"
17,5,COc1cccc(OC)c1-n1c(SCc2cc(=O)n3cc(C)ccc3n2)nnc1-c1cccs1 [Example 11]
18,2,"COc1cccc(OC)c1-n1c(SCc2cc(=O)n3cc(Cl)ccc3n2)nnc1-c1ccc(C)o1 [Example 3, 7-Chloro-2-({[4-(2,6-dimethoxyphenyl)-5-(5-methylfuran-2-yl)-4H-1,2,4-triazol-3-yl]sulfanyl}methyl)-4H-pyrido[1,2-a]pyrimidin-4-one]"
